System: HMOX1
Experiment: HMOX1 Protein Assay (immunostaining of HO-1 in NHLF cells, GE InCell 1000)
Format: cell-based
Details: Homo sapiens, fold change above DMSO treated cells, 3 μM compound (asterisk), 16 h
How it was run: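 NHLF cells seeded overnight in FGM-2, then exposed to compound or DMSO vehicle for 16 h, fixed, and immunostained for HO-1 with Hoechst nuclear counterstain; imaged on InCell 1000. Values are fold change over DMSO-treated cells, generally at 5 μM (0.8% DMSO), with asterisked entries at 3 μM.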

Compound	fold induction at 3 µM
C[C@@H](O)CNC(=O)c1ccc2c(c1)nc(Nc1nc3ccc(Cl)cc3s1)n2C [Example 203, 2-(6-Chloro-benzothiazol-2-ylamino)-1-methyl-1H-benzoimidazole-5-carboxylic acid ((R)-2-hydroxy-propyl)-amide]	18.7
C[C@H](O)CNC(=O)c1ccc2c(c1)nc(Nc1nc3ccc(Cl)cc3s1)n2C [Example 204, 2-(6-Chloro-benzothiazol-2-ylamino)-1-methyl-1H-benzoimidazole-5-carboxylic acid ((S)-2-hydroxy-propyl)-amide]	19.3
C[C@@H](O)CNC(=O)c1ccc2c(c1)nc(Nc1nc3ccc(C(F)(F)F)cc3s1)n2C [Example 205, 1-Methyl-2-(6-trifluoromethyl-benzothiazol-2-ylamino)-1H-benzoimidazole-5-carboxylic acid ((R)-2-hydroxy-propyl)-amide]	33.1
C[C@H](O)CNC(=O)c1ccc2c(c1)nc(Nc1nc3ccc(C(F)(F)F)cc3s1)n2C [Example 206, 1-Methyl-2-(6-trifluoromethyl-benzothiazol-2-ylamino)-1H-benzoimidazole-5-carboxylic acid ((S)-2-hydroxy-propyl)-amide]	27
COC(C)(C)CNC(=O)c1ccc2c(c1)nc(Nc1nc3ccc(Cl)cc3s1)n2C [Example 207, 2-(6-Chloro-benzothiazol-2-ylamino)-1-methyl-1H-benzoimidazole-5-carboxylic acid (2-methoxy-2-methyl-propyl)-amide]	11.8
COC(C)(C)CNC(=O)c1ccc2c(c1)nc(Nc1nc3ccc(C(F)(F)F)cc3s1)n2C [Example 208, 1-Methyl-2-(6-trifluoromethyl-benzothiazol-2-ylamino)-1H-benzoimidazole-5-carboxylic acid (2-methoxy-2-methyl-propyl)-amide]	26.5
Cn1c(Nc2nc3ccc(Cl)cc3s2)nc2cc(C(=O)NCCF)ccc21 [Example 209, 2-(6-Chloro-benzothiazol-2-ylamino)-1-methyl-1H-benzoimidazole-5-carboxylic acid (2-fluoro-ethyl)-amide]	14.2
Cn1c(Nc2nc3ccc(C(F)(F)F)cc3s2)nc2cc(C(=O)NCCF)ccc21 [Example 210, 1-Methyl-2-(6-trifluoromethyl-benzothiazol-2-ylamino)-1H-benzoimidazole-5-carboxylic acid (2-fluoro-ethyl)-amide]	29.9
CC(O)CCNC(=O)c1ccc2c(c1)nc(Nc1nc3ccc(Cl)cc3s1)n2C (stereo not drawn) [Example 215, 2-(6-Chloro-benzothiazol-2-ylamino)-1-methyl-1H-benzoimidazole-5-carboxylic acid (3-hydroxy-butyl)-amide]	16
CC(O)CCNC(=O)c1ccc2c(c1)nc(Nc1nc3ccc(C(F)(F)F)cc3s1)n2C (stereo not drawn) [Example 216, 1-Methyl-2-(6-trifluoromethyl-benzothiazol-2-ylamino)-1H-benzoimidazole-5-carboxylic acid (3-hydroxy-butyl)-amide]	31.6
Cn1c(Nc2nc3ccc(C(F)(F)F)cc3s2)nc2cc(C(=O)NCCCCO)ccc21 [Example 221, 1-Methyl-2-(6-trifluoromethyl-benzothiazol-2-ylamino)-1H-benzoimidazole-5-carboxylic acid (4-hydroxy-butyl)-amide]	26

Same assay, conditions: Homo sapiens, fold change above DMSO treated cells, 5 μM compound, 16 h

Compound	fold induction at 5 µM
COCCn1c(Nc2nc3ccc(OC(F)(F)F)cc3s2)nc2cc(C(=O)NCC(=O)N3CCN(C)CC3)ccc21 [Example 189, 1-(2-Methoxy-ethyl)-2-(6-trifluoromethoxy-benzothiazol-2-ylamino)-1H-benzoimidazole-5-carboxylic acid [2-(4-methyl-piperazin-1-yl)-2-oxo-ethyl]-amide]	24.6
CCn1c(Nc2nc3ccc(OC(F)(F)F)cc3s2)nc2cc(C(=O)NCC(=O)N3CCN(C)CC3)ccc21 [Example 190, 1-Ethyl-2-(6-trifluoromethoxy-benzothiazol-2-ylamino)-1H-benzoimidazole-5-carboxylic acid [2-(4-methyl-piperazin-1-yl)-2-oxo-ethyl]-amide]	23.4
CCn1c(Nc2nc3ccc(Oc4cccnc4)cc3s2)nc2cc(C(=O)NCCOC)ccc21 [Example 191, 1-Ethyl-2-[6-(pyridin-3-yloxy)-benzothiazol-2-ylamino]-1H-benzoimidazole-5-carboxylic acid (2-methoxy-ethyl)-amide]	33.8
Cn1c(Nc2nc3ccc(OC(F)(F)F)cc3s2)nc2cc(C(=O)NCCN3CCC(O)CC3)ccc21 [Example 192, 1-Methyl-2-(6-trifluoromethoxy-benzothiazol-2-ylamino)-1H-benzoimidazole-5-carboxylic acid [2-(4-hydroxy-piperidin-1-yl)-ethyl]-amide]	28.8
Cn1c(Nc2nc3ccc(OC(F)(F)F)cc3s2)nc2cc(C(=O)NCCN3CCCC(O)C3)ccc21 (stereo not drawn) [Example 193, 1-Methyl-2-(6-trifluoromethoxy-benzothiazol-2-ylamino)-1H-benzoimidazole-5-carboxylic acid [2-(3-hydroxy-piperidin-1-yl)ethyl]-amide]	11.1
Cn1c(Nc2nc3ccc(OC(F)(F)F)cc3s2)nc2cc(C#N)ccc21 [Example 194, 1-Methyl-2-(6-trifluoromethoxy-benzothiazol-2-ylamino)-1H-benzoimidazole-5-carbonitrile]	6
Cn1c(Nc2nc3ccc(OC(F)(F)F)cc3s2)nc2ccc(C#N)cc21 [Example 195, 1-Methyl-2-(6-trifluoromethoxy-benzothiazol-2-ylamino)-1H-benzoimidazole-6-carbonitrile]	4.4
Cn1c(Nc2nc3ccc(OC(F)(F)F)cc3s2)nc2cc(-c3ncc[nH]3)ccc21 [Example 196, [5-(1H-Imidazol-2-yl)-1-methyl-1H-benzimidazol-2-yl]-(6-trifluoromethoxy-benzothiazol-2-yl)-amine]	11.4
Cn1c(Nc2nc3ccc(OC(F)(F)F)cc3s2)nc2ccc(-c3nc[nH]n3)cc21 [Example 197, [1-Methyl-6-(1H-1,2,4-triazol-3-yl)-1H-benzimidazol-2-yl]-(6-trifluoromethoxy-benzothiazol-2-yl)-amine]	18
Cc1nc(-c2ccc3nc(Nc4nc5cc(OC(F)(F)F)ccc5s4)n(C)c3c2)n[nH]1 [Example 198, [1-Methyl-6-(5-methyl-1H-1,2,4-triazol-3-yl)-1H-benzimidazol-2-yl]-(5-trifluoromethoxy-benzothiazol-2-yl)-amine]	12
CCn1c(Nc2nc3ccc(OC(F)(F)F)cc3s2)nc2cc(S(=O)(=O)C(F)(F)F)ccc21 [Example 199, (1-Ethyl-5-trifluoromethanesulfonyl-1H-benzoimidazol-2-yl)-(6-trifluoromethoxy-benzothiazol-2-yl)-amine]	1.5
CC(=O)c1ccc2c(c1)nc(Nc1nc3ccc(OC(F)(F)F)cc3s1)n2C [Example 200, 1-[1-Methyl-2-(6-trifluoromethoxy-benzothiazol-2-ylamino)-1H-benzoimidazol-5-yl]-ethanone]	22.9
Cn1c(Nc2nc3ccc(OC(F)(F)F)cc3s2)nc2cc(S(C)(=O)=O)ccc21 [Example 201, (5-Methanesulfonyl-1-methyl-1H-benzoimidazol-2-yl)-(6-trifluoromethoxy-benzothiazol-2-yl)-amine]	26.5
Cn1c(Nc2nc3ccc(OC(F)(F)F)cc3s2)nc2ccc(CC(N)=O)cc21 [Example 202, 2-[1-Methyl-2-(6-trifluoromethoxy-benzothiazol-2-ylamino)-1H-benzoimidazol-6-yl]-acetamide]	15.6
Cn1c(Nc2nc3ccc(OC(F)(F)F)cc3s2)nc2cc(C(=O)NCC#N)ccc21 [Example 211, 1-Methyl-2-(6-trifluoromethoxy-benzothiazol-2-ylamino)-1H-benzoimidazole-5-carboxylic acid cyanomethyl-amide]	46.1
Cn1c(Nc2nc3ccc(OC(F)(F)F)cc3s2)nc2cc(C(=O)NCCC#N)ccc21 [Example 212, 1-Methyl-2-(6-trifluoromethoxy-benzothiazol-2-ylamino)-1H-benzoimidazole-5-carboxylic acid (2-cyano-ethyl)-amide]	48.8
Cn1c(Nc2nc3ccc(Cl)cc3s2)nc2cc(C(=O)NCCC#N)ccc21 [Example 213, 2-(6-Chloro-benzothiazol-2-ylamino)-1-methyl-1H-benzoimidazole-5-carboxylic acid (2-cyano-ethyl)-amide]	48.6
Cn1c(Nc2nc3ccc(Cl)cc3s2)nc2cc(C(=O)NCCCO)ccc21 [Example 214, 2-(6-Chloro-benzothiazol-2-ylamino)-1-methyl-1H-benzoimidazole-5-carboxylic acid (3-hydroxy-propyl)-amide]	42.4
Cn1c(Nc2nc3ccc(OC(F)(F)F)cc3s2)nc2cc(C(=O)NCC(C)(C)CO)ccc21 [Example 217, 1-Methyl-2-(6-trifluoromethoxy-benzothiazol-2-ylamino)-1H-benzoimidazole-5-carboxylic acid (3-hydroxy-2,2-dimethyl-propyl)-amide]	20.7
Cn1c(Nc2nc3ccc(Cl)cc3s2)nc2cc(C(=O)NCC(C)(C)CO)ccc21 [Example 218, 2-(6-Chloro-benzothiazol-2-ylamino)-1-methyl-1H-benzoimidazole-5-carboxylic acid (3-hydroxy-2,2-dimethyl-propyl)-amide]	39.2
Cn1c(Nc2nc3ccc(OC(F)(F)F)cc3s2)nc2cc(C(=O)NCCCCO)ccc21 [Example 219, 1-Methyl-2-(6-trifluoromethoxy-benzothiazol-2-ylamino)-1H-benzoimidazole-5-carboxylic acid (4-hydroxy-butyl)-amide]	40
Cn1c(Nc2nc3ccc(Cl)cc3s2)nc2cc(C(=O)NCCCCO)ccc21 [Example 220, 2-(6-Chloro-benzothiazol-2-ylamino)-1-methyl-1H-benzoimidazole-5-carboxylic acid (4-hydroxy-butyl)-amide]	61.9
